PubChem BioAssay (NCI)
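Method: 48-hour compound exposure of cells in 96-well plates, five concentrations, linear interpolation of endpoints. GI50 marks 50% less growth. TGI is the concentration that stops growth completely.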

How the values were obtained:
Assay in all cases: DTP human tumour cell line panel, 48 h
786-0 renal = tested on: 786-0 renal
A498 renal = tested on: A498 renal
A549 NSCLC = tested on: A549 NSCLC
ACHN renal = tested on: ACHN renal
BT-549 breast = tested on: BT-549 breast
CAKI-1 renal = tested on: CAKI-1 renal
CCRF-CEM leukemia = tested on: CCRF-CEM leukemia
COLO 205 colon = tested on: COLO 205 colon
DU-145 prostate = tested on: DU-145 prostate
EKVX NSCLC = tested on: EKVX NSCLC
HCC-2998 colon = tested on: HCC-2998 colon
HCT-116 colon = tested on: HCT-116 colon
HCT-15 colon = tested on: HCT-15 colon
HL-60(TB) leukemia = tested on: HL-60(TB) leukemia
HOP-62 NSCLC = tested on: HOP-62 NSCLC
HOP-92 NSCLC = tested on: HOP-92 NSCLC
HS 578T breast = tested on: HS 578T breast
HT29 colon = tested on: HT29 colon
IGROV1 ovarian = tested on: IGROV1 ovarian
K-562 leukemia = tested on: K-562 leukemia
KM12 colon = tested on: KM12 colon
LOX IMVI melanoma = tested on: LOX IMVI melanoma
M14 melanoma = tested on: M14 melanoma
MALME-3M melanoma = tested on: MALME-3M melanoma
MCF7 breast = tested on: MCF7 breast
MDA-MB-231 breast = tested on: MDA-MB-231 breast
MDA-MB-435 = tested on: MDA-MB-435
MOLT-4 leukemia = tested on: MOLT-4 leukemia
NCI-H226 lung = tested on: NCI-H226 lung
NCI-H23 lung = tested on: NCI-H23 lung
NCI-H460 lung = tested on: NCI-H460 lung
NCI-H522 lung = tested on: NCI-H522 lung
NCI/ADR-RES ovarian = tested on: NCI/ADR-RES ovarian
OVCAR-3 ovarian = tested on: OVCAR-3 ovarian
OVCAR-4 ovarian = tested on: OVCAR-4 ovarian
OVCAR-5 ovarian = tested on: OVCAR-5 ovarian
OVCAR-8 ovarian = tested on: OVCAR-8 ovarian
PC-3 prostate = tested on: PC-3 prostate
RPMI-8226 leukemia = tested on: RPMI-8226 leukemia
RXF 393 renal = tested on: RXF 393 renal
SF-268 CNS = tested on: SF-268 CNS
SF-295 CNS = tested on: SF-295 CNS
SF-539 CNS = tested on: SF-539 CNS
SK-MEL-2 melanoma = tested on: SK-MEL-2 melanoma
SK-MEL-28 melanoma = tested on: SK-MEL-28 melanoma
SK-MEL-5 melanoma = tested on: SK-MEL-5 melanoma
SK-OV-3 ovarian = tested on: SK-OV-3 ovarian
SN12C renal = tested on: SN12C renal
SNB-19 CNS = tested on: SNB-19 CNS
SNB-75 CNS = tested on: SNB-75 CNS
SR leukemia = tested on: SR leukemia
SW-620 colon = tested on: SW-620 colon
T-47D breast = tested on: T-47D breast
TK-10 renal = tested on: TK-10 renal
U251 CNS = tested on: U251 CNS
UACC-257 melanoma = tested on: UACC-257 melanoma
UACC-62 melanoma = tested on: UACC-62 melanoma
UO-31 renal = tested on: UO-31 renal

## CC(C)CCC[C@@H](C)[C@H]1CCC2C3=CCn4c(=O)ccc(=O)n4C3CC[C@@]21C (stereo partly specified)
786-0 renal
  GI50: 921 nM
  TGI: 2180 nM
A498 renal
  GI50: 1260 nM
  TGI: 2540 nM
A549 NSCLC
  GI50: 325 nM
  TGI: 1240 nM
ACHN renal
  GI50: 1160 nM
  TGI: 2450 nM
BT-549 breast
  GI50: 241 nM
  TGI: 1140 nM
CAKI-1 renal
  GI50: 460 nM
  TGI: 1210 nM
CCRF-CEM leukemia
  GI50: 453 nM
  TGI: > 100000 nM
COLO 205 colon
  GI50: 449 nM
  TGI: 1140 nM
DU-145 prostate
  GI50: 1240 nM
  TGI: 2520 nM
EKVX NSCLC
  GI50: 1240 nM
  TGI: 2940 nM
HCC-2998 colon
  GI50: 708 nM
  TGI: 2030 nM
HCT-116 colon
  GI50: 220 nM
  TGI: 645 nM
HCT-15 colon
  GI50: 432 nM
  TGI: 2050 nM
HL-60(TB) leukemia
  GI50: 113 nM
  TGI: 490 nM
HOP-62 NSCLC
  GI50: 1340 nM
  TGI: 2760 nM
HOP-92 NSCLC
  GI50: 240 nM
  TGI: 1390 nM
HS 578T breast
  GI50: 1840 nM
  TGI: 5030 nM
HT29 colon
  GI50: 575 nM
  TGI: 2060 nM
IGROV1 ovarian
  GI50: 698 nM
  TGI: 2500 nM
K-562 leukemia
  GI50: 309 nM
  TGI: 2020 nM
KM12 colon
  GI50: 639 nM
  TGI: 1800 nM
LOX IMVI melanoma
  GI50: 482 nM
  TGI: 1490 nM
M14 melanoma
  GI50: 436 nM
  TGI: 1440 nM
MALME-3M melanoma
  GI50: 1400 nM
  TGI: 2920 nM
MCF7 breast
  GI50: 341 nM
  TGI: 1400 nM
MDA-MB-231 breast
  GI50: 1180 nM
  TGI: 2720 nM
MDA-MB-435
  GI50: 599 nM
  TGI: 2030 nM
MOLT-4 leukemia
  GI50: 545 nM
  TGI: 4130 nM
NCI-H226 lung
  GI50: 1430 nM
  TGI: 3320 nM
NCI-H23 lung
  GI50: 1630 nM
  TGI: 4180 nM
NCI-H460 lung
  GI50: 886 nM
  TGI: 2350 nM
NCI-H522 lung
  GI50: 451 nM
  TGI: 1170 nM
NCI/ADR-RES ovarian
  GI50: 602 nM
  TGI: 2350 nM
OVCAR-3 ovarian
  GI50: 740 nM
  TGI: 2000 nM
OVCAR-4 ovarian
  GI50: 910 nM
  TGI: 2300 nM
OVCAR-5 ovarian
  GI50: 1160 nM
  TGI: 2710 nM
OVCAR-8 ovarian
  GI50: 485 nM
  TGI: 7550 nM
PC-3 prostate
  GI50: 367 nM
  TGI: 1590 nM
RPMI-8226 leukemia
  GI50: 243 nM
  TGI: 1010 nM
RXF 393 renal
  GI50: 717 nM
  TGI: 2310 nM
SF-268 CNS
  GI50: 1460 nM
  TGI: 2870 nM
SF-295 CNS
  GI50: 352 nM
  TGI: 1280 nM
SF-539 CNS
  GI50: 1430 nM
  TGI: 2790 nM
SK-MEL-2 melanoma
  GI50: 557 nM
  TGI: 1460 nM
SK-MEL-28 melanoma
  GI50: 837 nM
  TGI: 2100 nM
SK-MEL-5 melanoma
  GI50: 844 nM
  TGI: 2150 nM
SK-OV-3 ovarian
  GI50: 1780 nM
  TGI: 3170 nM
SN12C renal
  GI50: 624 nM
  TGI: 2030 nM
SNB-19 CNS
  GI50: 1590 nM
  TGI: 3020 nM
SNB-75 CNS
  GI50: 1010 nM
  TGI: 2180 nM
SR leukemia
  GI50: 137 nM
  TGI: 758 nM
SW-620 colon
  GI50: 689 nM
  TGI: 1940 nM
T-47D breast
  GI50: 266 nM
  TGI: 1600 nM
TK-10 renal
  GI50: 421 nM
  TGI: 1430 nM
U251 CNS
  GI50: 645 nM
  TGI: 1840 nM
UACC-257 melanoma
  GI50: 433 nM
  TGI: 1550 nM
UACC-62 melanoma
  GI50: 483 nM
  TGI: 1930 nM
UO-31 renal
  GI50: 354 nM
  TGI: 1480 nM
